Test results reported in paper PMC9246766 (Pharmaceutical research, 2022).
Like-named read-outs stand apart in the source and are kept apart here.

Experiments:
OCT3 [1] = target: T1, OCT3 (Homo sapiens, UniProt O75751); test: IC50 determination against OCT3-mediated ASP+ uptake in HEK-293 cells overexpressing OCT3; type: cell-based
T1 sequence (O75751 1-556): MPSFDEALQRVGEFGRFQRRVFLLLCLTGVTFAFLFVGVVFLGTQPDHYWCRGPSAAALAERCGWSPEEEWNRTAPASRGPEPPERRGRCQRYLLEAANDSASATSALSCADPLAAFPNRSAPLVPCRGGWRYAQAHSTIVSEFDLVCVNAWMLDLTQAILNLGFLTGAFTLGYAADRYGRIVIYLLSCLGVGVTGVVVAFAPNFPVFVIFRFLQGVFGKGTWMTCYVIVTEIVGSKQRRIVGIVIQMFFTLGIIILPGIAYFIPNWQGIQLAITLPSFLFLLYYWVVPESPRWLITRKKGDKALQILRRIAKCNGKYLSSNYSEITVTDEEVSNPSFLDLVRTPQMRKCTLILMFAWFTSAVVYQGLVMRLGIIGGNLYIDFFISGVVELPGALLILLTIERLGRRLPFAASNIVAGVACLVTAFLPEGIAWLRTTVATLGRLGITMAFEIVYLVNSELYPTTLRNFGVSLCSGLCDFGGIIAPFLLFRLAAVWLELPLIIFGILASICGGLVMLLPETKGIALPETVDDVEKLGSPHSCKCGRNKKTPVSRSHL

OCT3 [2] = target: T1, OCT3; test: IC50 determination against OCT3-mediated [14C]metformin uptake in HEK-293 cells overexpressing OCT3; type: cell-based
OCT3 [3] = target: T1, OCT3; test: High throughput screen: inhibition of OCT3-mediated ASP+ uptake in HEK-293 cells stably expressing OCT3; type: cell-based; details: for inhibition at 20 µM: HEK293
OCT3 [4] = target: T1, OCT3; test: Predicted DDI potential: ratio of plasma CMAX (total or unbound) to predicted OCT3 IC50; details: unbound plasma CMAX over predicted OCT3 IC50
[5] = total maximum plasma concentration; ref http://www.micromedexsolutions.com/; cited from earlier work
[6] = plasma protein binding used for unbound CMAX; source not given; cited from earlier work
[7] = cited from earlier work; for FDA product insert: warnings, precautions and major adverse reactions: cardiovascular / CNS related, ref FDA product insert; for Neurological side effects: stated in discussion, ref Table SII, 60; for Neurological Effects (from Literature): ref Pubmed ID of Table SII

IC50 (OCT3 [1]) [µM] | inhibition at 20 µM (OCT3 [3]) [%] | SMILES | IC50 (OCT3 [3]) [µM] | Cmax [5] [nM] | Protein binding [6] [%] | FDA product insert: warnings, precautions and major adverse reactions [7] | also measured
14.5 |  | N=C(N)NC(=O)c1nc(Cl)c(N)nc1N [amiloride] |  |  |  |  | IC50 (OCT3 [2]): 3 µM
 | 66.9 | CC1(C)S[C@@H]2[C@H](NC(=O)[C@H](NC(=O)N3CCNC3=O)c3ccccc3)C(=O)N2[C@H]1C(=O)O [azlocillin] | 9.9 | 17300 | 30 |  | Unbound CMAX/IC50 (OCT3 [4]): 1.23
19.7 |  | COc1ccccc1OCCNCC(O)COc1cccc2[nH]c3ccccc3c12 (stereo not shown) [carvedilol] |  |  |  |  | 
3.7 |  | [H]/N=C(\N/C(=N/[H])NCCCCCCNC(=N)NC(=N)Nc1ccc(Cl)cc1)Nc1ccc(Cl)cc1 [chlorhexidine] |  |  |  |  | IC50 (OCT3 [2]): 0.4 µM
177 |  | CNCCCN1c2ccccc2CCc2ccccc21 [desipramine] |  |  |  |  | inhibition at 20 µM (OCT3 [1]; HEK293, read-out: Inhibition of OCT3 activity at 20 μM): < 50%
5.6 |  | COc1cc2nc(N3CCN(C(=O)C4COc5ccccc5O4)CC3)nc(N)c2cc1OC (stereo not shown) [doxazosin] |  |  |  |  | 
 | 60.6 | O=C(O)c1ccccc1Nc1cccc(C(F)(F)F)c1 [flufenamic acid] | 13 | 24200 | 90 |  | Unbound CMAX/IC50 (OCT3 [4]): 0.19
3.2 |  | N=C(N)N/N=C/c1c(Cl)cccc1Cl [guanabenz] |  |  |  |  | IC50 (OCT3 [2]): 1.1 µM
 |  | Cc1ccc(NC(=O)c2ccc(CN3CCN(C)CC3)cc2)cc1Nc1nccc(-c2cccnc2)n1 [imatinib] |  | 1200 |  |  | 
 | 87.2 | Cc1c(OCC(F)(F)F)ccnc1C[S+]([O-])c1nc2ccccc2[nH]1 (stereo not shown) [lansoprazole] | < 5 | 2900 | 97 | No warnings and precautions regarding to cardiovascular, CNS | Neurological Effects (from Literature) [7]: Increase the risk of dementia
 | 50.5 | Cc1oncc1C(=O)Nc1ccc(C(F)(F)F)cc1 [leflunomide] | 19.6 | 233000 | 99.3 | No warnings and precautions regarding to cardiovascular, CNS | 
 | 65 | C[C@@H](O)[C@H]1C(=O)N2C(C(=O)O)=C(S[C@@H]3CN[C@H](C(=O)N(C)C)C3)[C@H](C)[C@H]12 [meropenem] | 10.8 | 256000 |  | Warnings and precautions: Seizures and other adverse CNS experiences have been reported during treatment. | Neurological side effects [7]: neurological side effects; Unbound CMAX/IC50 (OCT3 [4]): 23.3
2.4 | 74 | CCCNCC(O)COc1ccccc1C(=O)CCc1ccccc1 (stereo not shown) [propafenone] | 7 |  |  |  | 
 | 87.3 | COCCCOc1ccnc(C[S+]([O-])c2nc3ccccc3[nH]2)c1C (stereo not shown) [rabeprazole] | < 5 | 1300 | 96 | No warnings and precautions regarding to cardiovascular, CNS | 
 | 82.8 | CC(=O)S[C@@H]1CC2=CC(=O)CC[C@]2(C)[C@H]2CC[C@@]3(C)[C@@H](CC[C@@]34CCC(=O)O4)[C@H]12 [spironolactone] | < 5 | 1100 | 93 | No warnings and precautions regarding to cardiovascular, CNS | Neurological Effects (from Literature) [7]: Neurotoxicity, lipophilic and cross the blood brain barrier
12 | 81.6 | CCCc1nc2c(C)cc(-c3nc4ccccc4n3C)cc2n1Cc1ccc(-c2ccccc2C(=O)O)cc1 [telmisartan] |  | 2800 | 99.5 | No warnings and precautions regarding to cardiovascular, CNS | Neurological Effects (from Literature) [7]: Neuroprotective effect, across bbb; IC50 (OCT3 [2]): 3.9 µM
 |  | COc1cc(Cc2cnc(N)nc2N)cc(OC)c1OC [trimethoprim] |  | 5900 |  | warnings and precautions related to cardiovascular side-effects | FDA product insert: warnings, precautions and major adverse reactions ([7]; listed as Trimethoprim): Post marketing experience: QT prolongation resulting in ventricular tachycardia and torsade de pointes; Neurological Effects (from Literature) [7]: Trimethoprim/sulfamethaxazole (TMP-SMX) has been reported to be associated with encephalopathy and psychosis; Neurological side effects [7]: neurological side effects
 | 53.6 | Cc1onc(-c2ccccc2)c1-c1ccc(S(N)(=O)=O)cc1 [valdecoxib] | 17.3 | 2200 | 98 |  | Neurological Effects (from Literature) [7]: Neuroprotective effect, across bbb

SMILES | IC50 (OCT3 [1]) [µM] | inhibition at 20 µM (OCT3 [3]) [%] | IC50 (OCT3 [3]) [µM] | Cmax [5] [nM] | Protein binding [6] [%] | FDA product insert: warnings, precautions and major adverse reactions [7] | also measured
C[C@H]1[C@H](NC(=O)/C(=N\OC(C)(C)C(=O)O)c2csc(N)n2)C(=O)N1S(=O)(=O)O [aztreonam] |  | 87.1 | < 5 | 585000 | 56 | warnings and precautions related to cardiovascular side-effects | FDA product insert: warnings, precautions and major adverse reactions ([7]; listed as Aztreonam): Adverse reaction: Cardiovascular—hypotension, transient ECG changes (ventricular bigeminy and PVC), flushing. Nervous System—seizure, confusion, vertigo, paresthesia, insomnia, dizziness.; Neurological side effects [7]: neurological side effects
O=C1CCc2cc(OCCCCc3nnnn3C3CCCCC3)ccc2N1 [cilostazol] |  | 93.8 | < 5 | 2100 | 95 |  | Neurological Effects (from Literature) [7]: Cilostazol attenuated blood–brain barrier leakage, Cilostazol (CSZ) was recently found to suppress the progression of cognitive decline in patients with stable AD receiving acetylcholinesterase inhibitors
CC[C@H]1CN2CCc3cc(OC)c(OC)cc3[C@@H]2C[C@@H]1C[C@H]1NCCc2cc(OC)c(OC)cc21 [emetine] |  | 82.7 | < 5 | 600 | 90 |  | 
C=C1C[C@@H]2[C@H](CC[C@]3(C)C(=O)CC[C@@H]23)[C@@]2(C)C=CC(=O)C=C12 [exemestane] |  | 94.5 | < 5 | 1400 | 90 | No warnings and precautions regarding to cardiovascular, CNS | 
CCC1=C(C)CN(C(=O)NCCc2ccc(S(=O)(=O)NC(=O)N[C@H]3CC[C@H](C)CC3)cc2)C1=O [glimepiride] |  | 87.7 | < 5 | 1200 | 99 | No warnings and precautions regarding to cardiovascular, CNS. However, oral hypoglycemic reagents are known to increase cardiovascular mortality which may be due to hypoglycemia incidence. | 
CC(=O)N1CCN(c2ccc(OCC3COC(Cn4ccnc4)(c4ccc(Cl)cc4Cl)O3)cc2)CC1 (stereo not shown) [ketoconazole] | 0.42 | 93.4 | < 5 | 1900 | 91 |  | 
COc1ccc2[nH]c([S+]([O-])Cc3ncc(C)c(OC)c3C)nc2c1 (stereo not shown) [omeprazole] |  | 64.1 | 11.2 | 4200 | 95 | No warnings and precautions regarding to cardiovascular, CNS | Neurological Effects (from Literature) [7]: Increase the risk of dementia
COc1ccc(Cc2nccc3cc(OC)c(OC)cc23)cc1OC [papaverine] | 4.1 |  |  |  |  |  | IC50 (OCT3 [2]): 1.2 µM
C[C@]12C=CC(=O)C=C1CC[C@@H]1[C@@H]2[C@@H](O)C[C@@]2(C)[C@H]1CC[C@]2(O)C(=O)CO [prednisolone] |  | 67.5 | 9.6 | 2900 | 70 |  | Neurological Effects (from Literature) [7]: Behavirol effects
C=C[C@H]1C[N@@]2CC[C@H]1C[C@H]2[C@H](O)c1ccnc2ccc(OC)cc12 [quinine] | 6.6 | 90.6 | < 5 |  |  | warnings and precautions related to cardiovascular side-effects | FDA product insert: warnings, precautions and major adverse reactions ([7]; listed as Quinine): Warnings and precautions: QT prolongation and ventricular arrhythmias. Avoid concomitant use with drugs known to prolong QT interval.
